Source: patent US7189720B2 (H. Lundbeck A/S, priority 1999, dated 2007)

Target: T1, human Y5 receptor (Homo sapiens, UniProt Q15761)
T1 construct: expressed in transfected cells; host or cells: mouse fibroblast LM(tk-) cells, e.g. L-hY5-7 (ATCC CRL-11995)
T1 sequence (Q15761 1-445): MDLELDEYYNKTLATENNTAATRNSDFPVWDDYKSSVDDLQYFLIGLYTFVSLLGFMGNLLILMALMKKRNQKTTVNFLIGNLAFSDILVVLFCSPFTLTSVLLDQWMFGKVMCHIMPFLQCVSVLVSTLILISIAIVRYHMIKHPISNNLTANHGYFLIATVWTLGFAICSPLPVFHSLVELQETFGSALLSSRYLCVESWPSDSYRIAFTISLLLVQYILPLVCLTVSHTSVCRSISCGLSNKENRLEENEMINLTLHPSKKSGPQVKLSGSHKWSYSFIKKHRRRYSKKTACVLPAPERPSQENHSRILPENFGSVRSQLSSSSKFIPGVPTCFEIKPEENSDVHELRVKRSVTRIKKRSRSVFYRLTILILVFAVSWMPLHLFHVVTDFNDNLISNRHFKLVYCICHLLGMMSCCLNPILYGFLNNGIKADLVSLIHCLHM
Assay: Radioligand binding to membranes, cloned human Y5 receptor
Conditions: Table 1; read-out: Ki (nM) hNPY-5

SMILES | Ki
CCN(CC)c1nc(NCC2CCC(CNS(=O)(=O)c3cccc4ccccc34)CC2)nc(NC(C)C)n1 (centres unmarked) [Example 19, N1-[4-([4-(diethylamino)-6-(isopropylamino)-1,3,5-triazin-2-yl]aminomethyl)cyclohexyl]methyl-1-naphthalenesulfonamide] | 53 nM
CC(C)Nc1nc(NCC2CCC(CNS(=O)(=O)c3cccc4ccccc34)CC2)nc(N(C)CCO)n1 (centres unmarked) [Example 26, N1-[4-([4-[(2-hydroxyethyl)(methyl)amino]-6-(isopropylamino)-1,3,5-triazin-2-yl]aminomethyl)cyclohexyl]methyl-1-naphthalenesulfonamide] | 86 nM
CC(C)Nc1nc(NCC2CCC(CNS(=O)(=O)c3cccc4ccccc34)CC2)nc(N(C)C)n1 (centres unmarked) [Example 17, N1-{[4-({[4-(dimethylamino)-6-(isopropylamino)-1,3,5-triazin-2-yl]amino}methyl)cyclohexyl]methyl}-1-naphthalenesulfonamide] | 27 nM

Results, then the compound that gave them:

Ki | SMILES
40 nM | CC(C)Nc1nc(NCC2CCC(CNS(=O)(=O)c3cccc4ccccc34)CC2)nc(N2CCOCC2)n1 (centres unmarked) [Example 24, N1-[4-([4-(isopropylamino)-6-morpholino-1,3,5-triazin-2-yl]aminomethyl)cyclohexyl]methyl-1-naphthalenesulfonamide]
18 nM | CCCNc1nc(NCC2CCC(CNS(=O)(=O)c3cccc4ccccc34)CC2)nc(NC(C)C)n1 (centres unmarked) [Example 5, N1-[4-([4-(isopropylamino)-6-(propylamino)-1,3,5-triazin-2-yl]aminomethyl)cyclohexyl]methyl-1-naphthalenesulfonamide]
71 nM | COC[C@@H]1CCCN1c1nc(NCC2CCC(CNS(=O)(=O)c3cccc4ccccc34)CC2)nc(NC(C)C)n1 (stereo partly drawn) [Example 21, N1-(4-[(4-(isopropylamino)-6-[(2S)-2-(methoxymethyl)tetrahydro-1H-1-pyrrolyl]-1,3,5-triazin-2-ylamino)methyl]cyclohexylmethyl)-1-naphthalenesulfonamide]
23 nM | CC(C)Nc1nc(NCC2CCC(CNS(=O)(=O)c3cccc4ccccc34)CC2)nc(NC(C)C)n1 (centres unmarked) [Example 4, N1-{[4-({[4,6-Di(isopropylamino)-1,3,5-triazin-2-yl]amino}methyl)cyclohexyl]methyl}-1-naphthalenesulfonamide]

Same assay, conditions: Table 2; read-out: Ki (nM) hNPY-5

Ki | SMILES
25 nM | CCNc1nc(NCC)nc(NCC2CCC(CNS(=O)(=O)c3cc(C)ccc3OC)CC2)n1 (centres unmarked) [Example 31, N1-[4-([4,6-di(ethylamino)-1,3,5-triazin-2-yl]aminomethyl)cyclohexyl]methyl-2-methoxy-5-methyl-1-benzenesulfonamide]
50 nM | CCNc1nc(NCC)nc(NCC2CCC(CNS(=O)(=O)c3ccc(C(C)(C)C)cc3)CC2)n1 (centres unmarked) [Example 29, N1-[4-([4,6-di(ethylamino)-1,3,5-triazin-2-yl]aminomethyl)cyclohexyl]methyl-4-(tert-butyl)-1-benzenesulfonamide]
40 nM | CCNc1nc(NCC)nc(NCC2CCC(CNS(=O)(=O)c3ccc(F)cc3)CC2)n1 (centres unmarked) [Example 30, N1-[4-([4,6-di(ethylamino)-1,3,5-triazin-2-yl]aminomethyl)cyclohexyl]methyl-4-fluoro-1-benzenesulfonamide]
28 nM | CCNc1nc(NCC)nc(NCC2CCC(CNS(=O)(=O)c3ccc(C)cc3)CC2)n1 (centres unmarked) [Example 39, N1-[4-([4,6-di(ethylamino)-1,3,5-triazin-2-yl]aminomethyl)cyclohexyl]methyl-4-methyl-1-benzenesulfonamide]
35 nM | CCNc1nc(NCC)nc(NCC2CCC(CNS(=O)(=O)c3ccccc3F)CC2)n1 (centres unmarked) [Example 32, N1-[4-([4,6-di(ethylamino)-1,3,5-triazin-2-yl]aminomethyl)cyclohexyl]methyl-2-fluoro-1-benzenesulfonamide]

Same assay, conditions: Table 3; read-out: Ki (nM) hNPY-5

Ki | SMILES
295 nM | CC(C)Nc1nc(NCC2CCC(CNS(=O)(=O)N3CCOCC3)CC2)nc(N2CCOCC2)n1 (centres unmarked) [Example 44, N4-[4-([4-(isopropylamino)-6-morpholino-1,3,5-triazin-2-yl]aminomethyl)cyclohexyl]methyl-4-morpholinesulfonamide]

Same assay, conditions: Table 5; read-out: Ki, nM hNPY-5

SMILES | Ki
COCCN(C=O)[C@H]1CC[C@H](CNc2nc(-c3nc(C)sc3C)cs2)CC1 [Example 101, trans-N-[4-([4-(2,5-Dimethyl-1,3-thiazol-4-yl)-1,3-thiazol-2-yl]aminomethyl)cyclohexyl]-N-(2-methoxyethyl)formamide] | 407 nM
O=S(=O)(Cc1ccccc1)NCCCCCNc1nc(-c2ccccn2)cs1 [Example 66, 2-(5-(Benzylsulfonylamino)pentylamino-4-(2-pyridyl)thiazole hydrogen chloride] | 45 nM
Cc1noc(C)c1S(=O)(=O)N[C@H]1CC[C@H](CNc2nc(-c3ccccn3)cs2)CC1 [Example 85, trans-2-(4-(3,5-Dimethyl-4-isoxazolyl)sulfonylamino)-cyclohexylmethylamino-4-(2-pyridyl)thiazole dihydrogen chloride] | 3.8 nM
Cc1nc(-c2csc(NC[C@H]3CC[C@H](CNS(=O)(=O)N4CCOCC4)CC3)n2)c(C)s1 [Example 100, trans-N4-[4-([4-(2,5-Dimethyl-1,3-thiazol-4-yl)-1,3-thiazol-2-yl]aminomethyl)cyclohexyl]methyl-4-morpholinesulfonamide] | 3.3 nM
Cc1nc(-c2csc(N[C@H]3CC[C@H](CNS(=O)(=O)c4ccc(F)cc4)CC3)n2)c(C)s1 [Example 97] | 6.6 nM

Other lines, results leading:

Ki | SMILES
12.4 nM | CN(C)S(=O)(=O)NCCCCCNc1nc(-c2cccs2)cs1 [Example 91, N,N-Dimethyl-N′-(5-{[4-(2-thienyl)-1,3-thiazol-2-yl]amino}-pentyl)sulfamide]
179 nM | O=S(=O)(NCCCCCNc1nc(-c2nccs2)cs1)c1ccc(F)cc1 [Example 95, N1-(5-[4-(1,3-Thiazol-2-yl)-1,3-thiazol-2-yl]aminopentyl)-4-fluoro-1-benzenesulfonamide]

Same assay, conditions: Table 6; read-out: Ki, nM hNPY-5

SMILES | Ki
O=S(=O)(NCCCCNc1nc2c(s1)CCSc1ccccc1-2)c1ccc(F)cc1F [Example 138, N1-[4-(4,5-Dihydrobenzo[2,3]thiepino[4,5-d][1,3]thiazol-2-ylamino)butyl]-2,4-difluoro-1-benzenesulfonamide] | 119 nM
O=S(=O)(NC[C@H]1CC[C@H](Nc2nc3c(s2)CCSc2ccccc2-3)CC1)c1cccc2ccccc12 [Example 121, N1-{[4-(4,5-Dihydrobenzo[2,3]thiepino[4,5-d][1,3]thiazol-2-ylamino)cyclohexyl]methyl}-1-naphthalenesulfonamide] | 18.4 nM
Cc1ccc(S(=O)(=O)NC[C@H]2CC[C@H](Nc3nc4c(s3)CCSc3ccccc3-4)CC2)cc1 [Example 156, N1-{[4-(4,5-Dihydrobenzo[2,3]thiepino[4,5-d][1,3]thiazol-2-ylamino)cyclohexyl]methyl}-4-methyl-1-benzenesulfonamide] | 6.6 nM
COc1ccc(C)cc1S(=O)(=O)NCCCCCCNc1nc2c(s1)CCSc1ccccc1-2 [Example 113, N1-[6-(4,5-Dihydrobenzo[2,3]thiepino[4,5-d][1,3]thiazol-2-ylamino)hexyl]-2-methoxy-5-methyl-1-benzenesulfonamide] | 5.4 nM
CC(C)N(C=O)[C@H]1CC[C@H](CNc2nc3c(s2)CCSc2ccc(F)cc2-3)CC1 [Example 166, N-(4-[(9-Fluoro-4,5-dihydrobenzo[2,3]thiepino[4,5-d][1,3]thiazol-2-yl)amino]methylcyclohexyl)-N-isopropylformamide] | 6 nM

Continued, values first:

Ki | SMILES
4.4 nM | O=S(=O)(NCCCCCCNc1nc2c(s1)CCSc1ccccc1-2)c1cccc2nsnc12 [Example 112, N4-[6-(4,5-Dihydrobenzo[2,3]thiepino[4,5-d][1,3]thiazol-2-ylamino)hexyl]-2,1,3-benzothiadiazole-4-sulfonamide]
16.6 nM | O=S(=O)(NCCCCCCNc1nc2c(s1)CCSc1ccccc1-2)c1cccc2ccccc12 [Example 114, N1-[6-(4,5-Dihydrobenzo[2,3]thiepino[4,5-d][1,3]thiazol-2-ylamino)hexyl]-1-naphthalenesulfonamide]
29 nM | O=S(=O)(NCCCCCCNc1nc2c(s1)CCSc1ccccc1-2)c1ccc(-c2ccon2)s1 [Example 129, N2-[6-(4,5-Dihydrobenzo[2,3]thiepino[4,5-d][1,3]thiazol-2-ylamino)hexyl]-5-(3-isoxazolyl)-2-thiophenesulfonamide]
6.6 nM | O=S(=O)(NCCCCCCNc1nc2c(s1)CCSc1ccccc1-2)c1c(Cl)nc2sccn12 [Example 117, N5-[6-(4,5-Dihydrobenzo[2,3]thiepino[4,5-d][1,3]thiazol-2-ylamino)hexyl]-6-chloroimidazo[2,1-b][1,3]thiazole-5-sulfonamide]
34 nM | O=S(=O)(NC[C@H]1CC[C@H](Nc2nc3c(s2)CCSc2ccccc2-3)CC1)c1ccc(-c2ccon2)s1 [Example 126, N2-{[4-(4,5-Dihydrobenzo[2,3]thiepino[4,5-d][1,3]thiazol-2-ylamino)cyclohexyl]methyl}-5-(3-isoxazolyl)-2-thiophenesulfonamide]
4.8 nM | CC(C)N(C=O)[C@H]1CC[C@H](CNc2nc3c(s2)CCSc2ccccc2-3)CC1 [Example 165, trans-N-4-[(4,5-Dihydrobenzo[2,3]thiepino[4,5-d][1,3]thiazol-2-ylamino)methyl]cyclohexyl-N-isopropylformamide]
38 nM | O=S(=O)(Cc1ccccc1)NCCCCCNc1nc2c(s1)CCSc1ccccc1-2 [Example 133, N-[5-(4,5-dihydrobenzo[2,3]thiepino[4,5-d][1,3]thiazol-2-ylamino)pentyl]phenyl-methanesulfonamide]
